Measured values reported in patent USRE46943E1, “Radioprotector compounds and methods” (PETER MACCALLUM CANCER INSTITUTE, priority 2010, dated 2018).
pIC50: −log10 of the molar value. Where two headings read alike, the source gives them in different places.

Assays:
[1] = system: transformed human keratinocyte cell line (FEP 1811); test: Clonogenic survival cell culture assay for cytotoxicity; format: cell-based; conditions: un-irradiated keratinocytes, one hour drug exposure, colonies counted after eight days, read-out: C50 (concentration of radioprotector that results in 50% clonogenic survival)
Experimental: • i. […] In appropriate cases, tautomers are drawn to illustrate potential hydrogen-bond donating configurations into the minor groove of DNA. • ii. 2-Amino-4-(5′-(4″-methylpiperazin-1″-yl)benzimidazol-2′-yl)aniline was prepared by hydrogenation of 4-(5′-(4″-methylpiperazin-1″-yl)benzimidazol-2′-yl)-2-nitroaniline, using a modification of the method of Kelly et al, Aust. […] 2-Amino-4-(5′-(piperidin-1″-yl)benzimidazol-2′-yl)aniline was prepared by hydrogenation of 2-nitro-4-(5′-(piperidin-1″-yl)benzimidazol-2′-yl)aniline, using a modification of the method of Kelly et al, Aust. […] Ethyl 4-amino-3-nitrobenzenecarboximidate hydrochloride was prepared by reaction of 4-amino-3-nitrobenzonitrile with dry HCl gas in ethanol, using the method of Kelly et al, Aust. […] 5-(4′-Methylpiperazin-1′-yl)-2-nitroaniline was prepared using a modification of the method of Kelly et al, Aust. […] The following chemicals were obtained from the chemical suppliers indicated: 2-furaldehyde (Aldrich), 2-pyridinecarboxaldehyde (Aldrich), 3-fluoropyridine-2-carbaldehyde (Maybridge), 3-trifluoromethylpyridine-2-carboxaldehyde (Apollo Scientific), 6-methyl-2-pyridinecarboxaldehyde (Matrix Scientific), 5-methylpyridine-2-carbonitrile (Apollo Scientific), 4-methyl-2-pyridinecarbonitrile (Aldrich), 4-chloro-2-pyridinecarbonitrile (Aldrich), 4-methoxypicolinonitrile (Combi-Blocks), pyrazinecarbonitrile (Aldrich), 2-quinolinecarbonitrile (Aldrich), 3-isoquinolinecarbonitrile (Aldrich), 1-isoquinolinecarboxylic acid (Aldrich), indazole-3-carboxylic acid (Aldrich), 2-hydroxynicotinic acid (Aldrich), 4-hydroxypiperidine (Aldrich), 1-methylhomopiperazine (Aldrich), 3-hydroxypiperidine (Aldrich), 4-(N-BOC-amino)piperidine (Aldrich), 4-methoxypiperidine (Acros), 4-methyl-3-nitrobenzonitrile (Aldrich), 5-chloro-2-nitroaniline (Aldrich), 2-cyanopyridine (Aldrich), methyl 4-amino-2-methoxybenzoic acid (Aldrich), 4-(trifluoromethyl)-2-pyridinecarbonitrile (Matrix Scientific), cis-2,6-dimethylmorphoiline (Acros), 5-(trifluoromethyl)-2-pyridinecarbonitrile (Advanced Chemical Intermediates) and 5-fluoro-2-pyridinecarbonitrile (Advanced Chemical Intermediates). • ix. […] Melting points were determined using an Electrothermal melting point apparatus, and are uncorrected. […] The abbreviations s for singlet, d for doublet, t for triplet, q for quartet, br for broad and m for muitiplet were used in the assignments of multiplicity. A value approximating the centre of a multiplet is quoted. […] The addition of a few drops of acetic acid to methanol-d4 solutions was used to enhance solubility for the acquisition of ^13C nmr spectra. Mass spectra were recorded on a Micromass Quattro II mass spectrometer and accurate mass analyses were carried out by the School of Chemistry at the University of Melbourne on a Finnigan LTQ-FT model high resolution mass spectrometer. Thin layer chromatography (TLC) was carried out using Merck silica gel 60 F254 aluminium sheets or Merck neutral aluminium oxide 150 F254 sheets. Flash column chromatography was carried out using Ajax silica gel 230-400 mesh. • xi. […] The details are described in detail in Martin et al (4) (the disclosure of which is included herein in its entirety by way of reference), but briefly, mid-log phase monolayer cultures are incubated with various concentrations of the test drugs for one hour, after which the monolayers are washed and dispersed into single cell suspensions using pronase, and finally appropriate numbers of cells are dispensed into Petri dishes. Colonies are counted after eight days incubation. […] The irradiation (with a dose rate of 0.6 Gy per minute) is started 30 minutes after addition of the test drug. After completion of irradiation, incubation of cultures is continued until the total time of exposure to the drug reaches 60 minutes. Cultures are then washed and plated for clonogenic survival as described for the cytotoxicity experiments.

[2] = system: transformed human keratinocyte cell line (FEP 1811); test: Clonogenic survival cell culture assay for radioprotective activity (12 Gy 137Cs gamma irradiation); format: cell-based
Text: PF is defined as a ratio of survival at maximum protection Sm and survival after irradiation only So: PF=Sm/So. DMF is defined as a ratio of doses that result in survival level of Sm in the presence Dp and the absence Dc of radioprotector: DMF=Dp/Dc. DMF10 is define in a similar way except that instead of Sm a survival at 10 microM of radioprotector is used.
PF (Protection Factor) is defined as a ratio of survival at maximum protection Sm and survival after irradiation only So:PF=Sm/So. DMF (Dose Modification Factor) is defined as a ratio of doses that result in survival level of Sm in the presence (Dp) and the absence (Dc) of radioprotector: DMF=Dp/Dc. DMF10 is defined in a similar way except that instead of Sm a survival at 10 microM of radioprotector is used.
• i. […] In appropriate cases, tautomers are drawn to illustrate potential hydrogen-bond donating configurations into the minor groove of DNA. • ii. 2-Amino-4-(5′-(4″-methylpiperazin-1″-yl)benzimidazol-2′-yl)aniline was prepared by hydrogenation of 4-(5′-(4″-methylpiperazin-1″-yl)benzimidazol-2′-yl)-2-nitroaniline, using a modification of the method of Kelly et al, Aust. […] 2-Amino-4-(5′-(piperidin-1″-yl)benzimidazol-2′-yl)aniline was prepared by hydrogenation of 2-nitro-4-(5′-(piperidin-1″-yl)benzimidazol-2′-yl)aniline, using a modification of the method of Kelly et al, Aust. […] Ethyl 4-amino-3-nitrobenzenecarboximidate hydrochloride was prepared by reaction of 4-amino-3-nitrobenzonitrile with dry HCl gas in ethanol, using the method of Kelly et al, Aust. […] 5-(4′-Methylpiperazin-1′-yl)-2-nitroaniline was prepared using a modification of the method of Kelly et al, Aust. […] The following chemicals were obtained from the chemical suppliers indicated: 2-furaldehyde (Aldrich), 2-pyridinecarboxaldehyde (Aldrich), 3-fluoropyridine-2-carbaldehyde (Maybridge), 3-trifluoromethylpyridine-2-carboxaldehyde (Apollo Scientific), 6-methyl-2-pyridinecarboxaldehyde (Matrix Scientific), 5-methylpyridine-2-carbonitrile (Apollo Scientific), 4-methyl-2-pyridinecarbonitrile (Aldrich), 4-chloro-2-pyridinecarbonitrile (Aldrich), 4-methoxypicolinonitrile (Combi-Blocks), pyrazinecarbonitrile (Aldrich), 2-quinolinecarbonitrile (Aldrich), 3-isoquinolinecarbonitrile (Aldrich), 1-isoquinolinecarboxylic acid (Aldrich), indazole-3-carboxylic acid (Aldrich), 2-hydroxynicotinic acid (Aldrich), 4-hydroxypiperidine (Aldrich), 1-methylhomopiperazine (Aldrich), 3-hydroxypiperidine (Aldrich), 4-(N-BOC-amino)piperidine (Aldrich), 4-methoxypiperidine (Acros), 4-methyl-3-nitrobenzonitrile (Aldrich), 5-chloro-2-nitroaniline (Aldrich), 2-cyanopyridine (Aldrich), methyl 4-amino-2-methoxybenzoic acid (Aldrich), 4-(trifluoromethyl)-2-pyridinecarbonitrile (Matrix Scientific), cis-2,6-dimethylmorphoiline (Acros), 5-(trifluoromethyl)-2-pyridinecarbonitrile (Advanced Chemical Intermediates) and 5-fluoro-2-pyridinecarbonitrile (Advanced Chemical Intermediates). • ix. […] Melting points were determined using an Electrothermal melting point apparatus, and are uncorrected. […] The abbreviations s for singlet, d for doublet, t for triplet, q for quartet, br for broad and m for muitiplet were used in the assignments of multiplicity. A value approximating the centre of a multiplet is quoted. […] The addition of a few drops of acetic acid to methanol-d4 solutions was used to enhance solubility for the acquisition of ^13C nmr spectra. Mass spectra were recorded on a Micromass Quattro II mass spectrometer and accurate mass analyses were carried out by the School of Chemistry at the University of Melbourne on a Finnigan LTQ-FT model high resolution mass spectrometer. Thin layer chromatography (TLC) was carried out using Merck silica gel 60 F254 aluminium sheets or Merck neutral aluminium oxide 150 F254 sheets. Flash column chromatography was carried out using Ajax silica gel 230-400 mesh. • xi.

[3] = 12 Gy, 10 microM radioprotector
[4] = 12 Gy, DMF=Dp/Dc at survival level Sm
[5] = 12 Gy, survival at maximum protection vs irradiation only
[6] = Homo sapiens, Keratinocyte, light or radiation study

Compound | pIC50 [1] | DMF10 (dose modification factor at a concentration of 10 microM of radioprotector) [2] | DMFm (dose modification factor at maximum protection) [2] | PF (protection factor = Sm/So) [2] | DMF10 (dose modification factor at a concentration of 10 microM of radioprotector) [2, 3] | DMFm (dose modification factor at maximum protection) [2, 4] | PF (protection factor = Sm/So) [2, 5] | pIC50 [1, 6]
2-(5′-(5″-(2′″-(dimethylamino)ethoxy)benzimidazol-2″-yl)benzimidazol-2′-yl)pyridine [Example 44] | 3.84 | 1.50 | 1.88 | 17.6 |  |  |  | 
2-(5′-(5″-(4′″-methylpiperazin-1′″-yl)-1H-indol-2″-yl)benzimidazol-2′-yl)pyridine [Example 53] | 4.47 |  |  |  | 1.21 | 1.30 | 4.9 | 
Cc1cccc(-c2nc3ccc(-c4nc5ccc(N6CCN(C)CC6)cc5[nH]4)cc3[nH]2)n1 [Example 5, 6-Methyl-2-(5′-(5″-(4′″-methylpiperazin-1′″-yl)benzimidazol-2″-yl)benzimidazol-2′-yl)pyridine] |  |  |  |  | 1.12 | 1.22 | 2.5 | 4.13
CN1CCN(c2ccc3[nH]c(-c4ccc5[nH]c(-c6ccc7ccccc7n6)nc5c4)nc3c2)CC1 [Example 13, 2-(5′-(5″-(4′″-Methylpiperazin-1′″-yl)benzimidazol-2″-yl)benzimidazol-2′-yl)quinoline] | 4.85 |  |  |  | 1.65 | 1.66 | 11.0 | 
CN1CCN(c2ccc3[nH]c(-c4ccc5[nH]c(-c6nn(C)c7ccccc67)nc5c4)nc3c2)CC1 [Example 17, 1-methyl-3-(5′-(5″-(4′″-methylpiperazin-1′″-yl)benzimidazol-2″-yl)benzimidazol-2′-yl)indazole] | 4.12 |  |  |  | 1.27 | 1.68 | 10.9 | 
CCCCN1CCN(c2ccc3nc(-c4ccc5nc(-c6ccccn6)[nH]c5c4)[nH]c3c2)CC1 [Example 34, 2-(5′-(5″-(4′″-Butylpiperazin-1′″-yl)benzimidazol-2″-yl)benzimidazol-2′-yl)pyridine] |  |  |  |  | 2.05 | 2.27 | 27.6 | 4.33
COCCNc1ccc2[nH]c(-c3ccc4nc(-c5ccccn5)[nH]c4c3)nc2c1 [Example 35, 2-(5′-(5″-(2′″-methoxyethylamino)benzimidazol-2″-yl)benzimidazol-2′-yl)pyridine] |  |  |  |  | 1.66 | 2.19 | 21.9 | 3.90
c1ccc(-c2nc3ccc(-c4nc5ccc(N6CCSCC6)cc5[nH]4)cc3[nH]2)nc1 [Example 36, 2-(5′-(5″-thiomorpholinobenzimidazol-2″-yl)benzimidazol-2′-yl)pyridine] |  |  |  |  | 1.49 | 1.53 | 16.4 | 4.50
CN(C)C(=O)N1CCN(c2ccc3[nH]c(-c4ccc5[nH]c(-c6ccccn6)nc5c4)nc3c2)CC1 [Example 37, 2-(5′-(5″-(4′″-(dimethylcarbamoyl)piperazin-1 ′″-yl)benzimidazol-2″-yl)benzimidazol-2′-yl)pyridine] | 3.92 |  |  |  | 1.49 | 1.82 | 34.6 | 
COCCN1CCN(c2ccc3nc(-c4ccc5nc(-c6ccccn6)[nH]c5c4)[nH]c3c2)CC1 [Example 40, 2-(5′-(5″-(4′″-(2″″-methoxyethyl)piperazin-1′″-yl)benzimidazol-2″-yl)benzimidazol-2′-yl)pyridine] |  |  |  |  | 1.77 | 198 | 20.2 | 4.09
CN(C)CCNc1ccc2[nH]c(-c3ccc4[nH]c(-c5ccccn5)nc4c3)nc2c1 [Example 43, 2-(5′-(5″-(2′″-(dimethylamino)ethylamino)benzimidazol-2″-yl)benzimidazol-2′-yl)pyridine] | 3.93 |  |  |  | 1.28 | 1.61 | 11.2 | 
